Assays:
[1] = target: TEC (Homo sapiens (Human), UniProt P42680); assay: Kinase inhibition TEC; type: biochemical
[2] = target: Ba/F3 TEL-JAK2 (Homo sapiens, UniProt O60674); assay: Inhibition of Ba/F3 TEL-JAK2 cell line; type: cell-based; details: read-out: IC50 (μM) Ba/F3 TEL-JAK2
Description: (§1) Growth and inhibition of growth was assessed by MTS assay. This assay, a colorimetric method for determining the number of viable cells, is based on the bioreduction of 3-(4,5-dimethylthiazol-2-yl)-5-(3-carboxymethoxyphenyl)-2-(4-sulfophenyl)-2H-tetrazolium (MTS) by cells to a formazan product that is soluble in cell culture medium, can be detected spectrophotometrically and was performed according to the manufacturer's recommended conditions. Ba/F3 cells were exposed to treatment for 72 hours and the number of cells used per experiment determined empirically to assure linear growth kinetics over that time period. All experimental points were set up in six to twelve wells and all experiments were repeated at least three times. […] The curves were fitted using a non-linear regression model with a sigmoidal dose response.

[3] = target: ITK (Homo sapiens (Human), UniProt Q08881); assay: Kinase inhibition ITK; type: biochemical
[4] = target: Ba/F3 TEL-JAK1 (Homo sapiens, UniProt P23458); assay: Inhibition of Ba/F3 TEL-JAK1 cell line; type: cell-based; details: read-out: IC50 (μM) Ba/F3 TEL-JAK1
Chain of Ba/F3 TEL-JAK1 (P23458 whole entry, looked up, change not shown): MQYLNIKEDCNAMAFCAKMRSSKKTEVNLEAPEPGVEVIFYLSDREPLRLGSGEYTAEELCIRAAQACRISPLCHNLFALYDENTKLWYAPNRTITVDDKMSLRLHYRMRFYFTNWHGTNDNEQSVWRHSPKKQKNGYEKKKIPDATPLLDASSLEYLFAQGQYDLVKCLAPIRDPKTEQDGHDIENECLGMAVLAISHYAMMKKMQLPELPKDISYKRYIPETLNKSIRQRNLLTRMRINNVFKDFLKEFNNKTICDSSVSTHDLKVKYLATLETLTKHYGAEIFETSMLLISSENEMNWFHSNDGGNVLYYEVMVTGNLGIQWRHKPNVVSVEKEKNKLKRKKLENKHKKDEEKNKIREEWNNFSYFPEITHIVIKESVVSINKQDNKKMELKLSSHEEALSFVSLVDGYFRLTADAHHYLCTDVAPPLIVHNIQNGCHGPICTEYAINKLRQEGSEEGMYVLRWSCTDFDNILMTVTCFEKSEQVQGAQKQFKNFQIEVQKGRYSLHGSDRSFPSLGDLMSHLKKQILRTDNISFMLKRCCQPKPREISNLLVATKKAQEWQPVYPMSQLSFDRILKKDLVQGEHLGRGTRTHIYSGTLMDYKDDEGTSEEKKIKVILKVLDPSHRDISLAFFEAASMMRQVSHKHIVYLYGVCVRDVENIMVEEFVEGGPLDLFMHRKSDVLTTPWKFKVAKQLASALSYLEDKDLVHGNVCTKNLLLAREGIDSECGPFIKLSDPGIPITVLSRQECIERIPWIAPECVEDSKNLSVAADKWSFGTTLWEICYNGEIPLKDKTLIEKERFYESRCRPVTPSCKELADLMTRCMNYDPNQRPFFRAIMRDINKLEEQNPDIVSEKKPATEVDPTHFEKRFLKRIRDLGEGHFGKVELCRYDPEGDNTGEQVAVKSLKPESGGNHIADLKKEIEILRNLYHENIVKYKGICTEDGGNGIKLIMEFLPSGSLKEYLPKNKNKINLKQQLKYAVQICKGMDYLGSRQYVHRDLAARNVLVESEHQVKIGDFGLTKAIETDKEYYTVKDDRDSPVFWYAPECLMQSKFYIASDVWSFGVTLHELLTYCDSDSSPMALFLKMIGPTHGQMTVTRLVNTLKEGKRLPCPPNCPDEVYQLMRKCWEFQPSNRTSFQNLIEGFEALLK
Description: as §1

[5] = target: Ba/F3 TEL-ABL (Homo sapiens, UniProt P00519); assay: Inhibition of Ba/F3 TEL-ABL cell line; type: cell-based; details: read-out: IC50 (μM) Ba/F3 TEL-ABL
Chain of Ba/F3 TEL-ABL (P00519 whole entry, looked up, change not shown): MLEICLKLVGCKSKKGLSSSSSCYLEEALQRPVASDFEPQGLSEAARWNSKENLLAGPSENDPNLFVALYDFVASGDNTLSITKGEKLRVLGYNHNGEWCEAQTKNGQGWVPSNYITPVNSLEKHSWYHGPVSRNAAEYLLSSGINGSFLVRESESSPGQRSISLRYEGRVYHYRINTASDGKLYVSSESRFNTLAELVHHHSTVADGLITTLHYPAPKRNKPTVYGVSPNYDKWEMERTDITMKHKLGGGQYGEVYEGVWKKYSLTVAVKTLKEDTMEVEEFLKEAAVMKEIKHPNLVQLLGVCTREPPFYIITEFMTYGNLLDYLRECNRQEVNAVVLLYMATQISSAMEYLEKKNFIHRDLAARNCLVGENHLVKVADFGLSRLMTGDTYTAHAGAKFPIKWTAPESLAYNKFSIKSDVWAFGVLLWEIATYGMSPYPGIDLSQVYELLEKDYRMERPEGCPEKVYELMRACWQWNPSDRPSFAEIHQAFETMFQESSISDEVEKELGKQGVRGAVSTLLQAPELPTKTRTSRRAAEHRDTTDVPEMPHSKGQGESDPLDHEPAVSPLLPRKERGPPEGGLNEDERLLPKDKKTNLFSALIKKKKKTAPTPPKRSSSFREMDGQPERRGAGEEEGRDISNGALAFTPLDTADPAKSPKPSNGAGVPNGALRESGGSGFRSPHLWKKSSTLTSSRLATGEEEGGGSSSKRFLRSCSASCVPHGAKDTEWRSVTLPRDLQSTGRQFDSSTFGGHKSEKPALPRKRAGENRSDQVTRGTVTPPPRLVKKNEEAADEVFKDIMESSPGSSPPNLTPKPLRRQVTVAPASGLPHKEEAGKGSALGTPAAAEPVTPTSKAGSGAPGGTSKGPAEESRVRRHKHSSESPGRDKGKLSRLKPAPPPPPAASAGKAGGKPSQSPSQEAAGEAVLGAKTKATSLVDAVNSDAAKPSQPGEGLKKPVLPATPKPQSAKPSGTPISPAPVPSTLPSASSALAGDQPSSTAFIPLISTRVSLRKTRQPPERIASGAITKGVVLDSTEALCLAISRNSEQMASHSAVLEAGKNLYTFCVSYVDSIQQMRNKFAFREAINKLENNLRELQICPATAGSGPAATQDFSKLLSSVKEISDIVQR
Description: as §1

[6] = target: BLK (Homo sapiens (Human), UniProt P51451); assay: Kinase inhibition BLK; type: biochemical
Chain of BLK (P51451 whole entry): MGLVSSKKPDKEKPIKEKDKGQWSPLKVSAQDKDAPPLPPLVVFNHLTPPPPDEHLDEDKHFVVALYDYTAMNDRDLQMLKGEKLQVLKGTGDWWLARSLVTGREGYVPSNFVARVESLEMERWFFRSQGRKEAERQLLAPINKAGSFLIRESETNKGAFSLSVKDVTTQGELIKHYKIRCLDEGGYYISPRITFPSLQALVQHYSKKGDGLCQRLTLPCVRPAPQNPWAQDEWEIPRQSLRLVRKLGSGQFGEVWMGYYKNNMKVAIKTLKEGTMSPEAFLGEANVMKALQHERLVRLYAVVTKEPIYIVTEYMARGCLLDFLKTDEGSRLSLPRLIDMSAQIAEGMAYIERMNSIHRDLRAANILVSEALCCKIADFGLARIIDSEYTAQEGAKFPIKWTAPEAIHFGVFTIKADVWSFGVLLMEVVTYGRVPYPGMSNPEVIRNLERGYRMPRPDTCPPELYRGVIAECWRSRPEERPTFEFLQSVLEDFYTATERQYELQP

[7] = target: TXK (Homo sapiens (Human), UniProt P42681); assay: Kinase inhibition TXK; type: biochemical
Chain of TXK (P42681 whole entry): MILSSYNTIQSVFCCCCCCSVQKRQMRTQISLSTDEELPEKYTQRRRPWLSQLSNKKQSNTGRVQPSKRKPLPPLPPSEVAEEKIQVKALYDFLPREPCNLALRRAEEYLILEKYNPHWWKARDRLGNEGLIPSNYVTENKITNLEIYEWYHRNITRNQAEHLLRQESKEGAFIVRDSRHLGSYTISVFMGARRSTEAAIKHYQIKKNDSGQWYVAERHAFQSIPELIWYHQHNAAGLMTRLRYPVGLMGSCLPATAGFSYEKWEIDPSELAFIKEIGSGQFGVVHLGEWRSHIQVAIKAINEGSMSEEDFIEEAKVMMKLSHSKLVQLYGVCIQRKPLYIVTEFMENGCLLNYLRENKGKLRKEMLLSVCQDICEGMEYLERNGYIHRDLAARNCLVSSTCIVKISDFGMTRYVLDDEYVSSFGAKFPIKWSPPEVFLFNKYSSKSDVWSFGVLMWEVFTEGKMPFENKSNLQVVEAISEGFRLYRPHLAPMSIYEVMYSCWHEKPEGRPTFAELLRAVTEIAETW

[8] = target: Ba/F3 TYK2_E957D (Homo sapiens (Human), UniProt P29597, E957D); assay: Inhibition of Ba/F3 TYK2_E957D cell line; type: cell-based; details: read-out: IC50 (μM) Ba/F3 TYK2_E957D
Description: as §1

[9] = target: Ba/F3 TEL-JAK3 (Homo sapiens, UniProt P52333); assay: Inhibition of Ba/F3 TEL-JAK3 cell line; type: cell-based; details: read-out: IC50 (μM) Ba/F3 TEL-JAK3
Description: as §1

[10] = target: EGFR L858R Ba/F3 cells (Homo sapiens (Human), UniProt P00533, L858R); assay: Ba/F3 cell growth inhibition (MTS assay), EGFR L858R; type: cell-based; details: for EGFR activity (% Control, 100 nM drug) L858R: Table G
[11] = target: EGFR Del Ba/F3 cells (Homo sapiens, UniProt P00533, cells depend on it, form not given); assay: Ba/F3 cell growth inhibition (MTS assay), EGFR Del; type: cell-based; details: for EGFR activity (% Control, 100 nM drug) Del: Table G
[12] = target: EGFR Del/T790M Ba/F3 cells (Homo sapiens, UniProt P00533, T790M, cells depend on it, form not given); assay: Ba/F3 cell growth inhibition (MTS assay), EGFR Del/T790M; type: cell-based; details: for EGFR activity (% Control, 100 nM drug) Del/T790M: Table G
[13] = target: EGFR L858R/T790M Ba/F3 cells (Homo sapiens (Human), UniProt P00533, L858R/T790M); assay: Ba/F3 cell growth inhibition (MTS assay), EGFR L858R/T790M; type: cell-based; details: for EGFR activity (% Control, 100 nM drug) L858R/T790M: Table G
[14] = target: BTK (Homo sapiens (Human), UniProt Q06187); assay: BTK kinase assay (LanthaScreen Kinase assay); type: biochemical
Description: BTK kinase assay was conducted using LanthaScreen® Kinase assay.
1. Optimization of kinase concentration required to determine ATP Km,app. The assay was first performed at a high concentration of ATP (1 mM) against a dilution series of kinase in order to determine the amount of kinase required to elicit an approximately 80% change between the minimum and maximum TR-FRET emission ratios (the EC80 value).
2. Determination of ATP Km,app. Using the concentration of enzyme determined in step 1, the assay was then performed against a dilution series of ATP in order to determine the amount of ATP required to elicit a 50% change between the minimum and maximum TR-FRET emission ratios (the EC50 value). This concentration of ATP was referred to as the “apparent” Km value for ATP, or the ATP Km,app.
3. Optimization of kinase concentration required for assay at ATP Km,app. Using the ATP Km,app concentration of ATP determined in step 2, the kinase titration was repeated in order to determine the concentration of kinase required to elicit an approximately 80% change between the minimum and maximum TR-FRET emission ratios at the ATP Km,app concentration of ATP (the EC80 value). This was the concentration of kinase that will be used in an assay to determine an IC50 value for a compound of the invention.
Using the ATP and kinase concentrations determined above, the reaction was then performed in the presence of a dilution series of various compounds of the invention, and the amount of compounds required to elicit a 50% change in TR-FRET ratio (the IC50) was determined. The experiments can be performed over two days, with steps one and two being performed on the first day, and step three and the inhibitor IC50 determination(s) being performed on the second day.

[15] = target: EGFR Del/T790M/L718Q Ba/F3 cells (Homo sapiens, UniProt P00533, L718Q/T790M, cells depend on it, form not given); type: cell-based; details: 1.0 μM drug
From the text: The specific cDNAs encoding the oncogenic alterations (EGFR: Del 19, L858R, L718Q, L844V, Del/T790M, L858R/T790M, Del 19/L718Q, Del 19/L844V, Del 19/T790M/L718Q and L858R/T790M/L718Q; FGFR: TEL-FGFR1, TEL-FGFR2, TEL-FGFR1 V561M, TEL-FGFR2 V561M; ALK: EML4-ALK; ROS1: CD74-ROS1) were cloned into the pDNA-Dual (BD Biosciences) vector using standard molecular biology techniques. Mutations were introduced using site-directed mutagenesis (Agilent) with mutant specific primers according to the manufacturer's instructions. All constructs were confirmed by DNA sequencing. The constructs were introduced into Ba/F3 cells using retroviral infection. Polyclonal cell lines were established by puromycin selection and subsequently cultured in the absence of interleukin-3 (IL-3). Uninfected Ba/F3 cells or cell lines expressing green fluorescent protein (GFP) were used as controls.
as §1

[16] = test system: KIF5B/Ret_V804M; assay: Ba/F3 cell growth inhibition (MTS assay), KIF5B/Ret_V804M; type: cell-based
Description: as §1

[17] = target: EGFR Wild type vIII Ba/F3 cells (Homo sapiens (Human), UniProt P00533, DELINS30-297G); assay: Ba/F3 cell growth inhibition (MTS assay), EGFR Wild type vIII; type: cell-based; details: Assay 1, read-out: EGFR Ba/F3 cells IC 50 (nM) Assay 1 Wild type vIII
[18] = Microsome Stability Mouse; type: in vitro ADME; details: mouse microsomes
[19] = target: EGFR L858R/T790M/L718Q Ba/F3 cells (Homo sapiens (Human), UniProt P00533, L718Q/L858R/T790M); assay: Ba/F3 cell growth inhibition (MTS assay), EGFR L858R/T790M/L718Q; type: cell-based; details: Assay 1; T/L/L718Q; read-out: EGFR Ba/F3 cells IC 50 (nM) Assay 1 T/L/L718Q

Chain of Ba/F3 TEL-JAK2 (O60674 whole entry, looked up, change not shown): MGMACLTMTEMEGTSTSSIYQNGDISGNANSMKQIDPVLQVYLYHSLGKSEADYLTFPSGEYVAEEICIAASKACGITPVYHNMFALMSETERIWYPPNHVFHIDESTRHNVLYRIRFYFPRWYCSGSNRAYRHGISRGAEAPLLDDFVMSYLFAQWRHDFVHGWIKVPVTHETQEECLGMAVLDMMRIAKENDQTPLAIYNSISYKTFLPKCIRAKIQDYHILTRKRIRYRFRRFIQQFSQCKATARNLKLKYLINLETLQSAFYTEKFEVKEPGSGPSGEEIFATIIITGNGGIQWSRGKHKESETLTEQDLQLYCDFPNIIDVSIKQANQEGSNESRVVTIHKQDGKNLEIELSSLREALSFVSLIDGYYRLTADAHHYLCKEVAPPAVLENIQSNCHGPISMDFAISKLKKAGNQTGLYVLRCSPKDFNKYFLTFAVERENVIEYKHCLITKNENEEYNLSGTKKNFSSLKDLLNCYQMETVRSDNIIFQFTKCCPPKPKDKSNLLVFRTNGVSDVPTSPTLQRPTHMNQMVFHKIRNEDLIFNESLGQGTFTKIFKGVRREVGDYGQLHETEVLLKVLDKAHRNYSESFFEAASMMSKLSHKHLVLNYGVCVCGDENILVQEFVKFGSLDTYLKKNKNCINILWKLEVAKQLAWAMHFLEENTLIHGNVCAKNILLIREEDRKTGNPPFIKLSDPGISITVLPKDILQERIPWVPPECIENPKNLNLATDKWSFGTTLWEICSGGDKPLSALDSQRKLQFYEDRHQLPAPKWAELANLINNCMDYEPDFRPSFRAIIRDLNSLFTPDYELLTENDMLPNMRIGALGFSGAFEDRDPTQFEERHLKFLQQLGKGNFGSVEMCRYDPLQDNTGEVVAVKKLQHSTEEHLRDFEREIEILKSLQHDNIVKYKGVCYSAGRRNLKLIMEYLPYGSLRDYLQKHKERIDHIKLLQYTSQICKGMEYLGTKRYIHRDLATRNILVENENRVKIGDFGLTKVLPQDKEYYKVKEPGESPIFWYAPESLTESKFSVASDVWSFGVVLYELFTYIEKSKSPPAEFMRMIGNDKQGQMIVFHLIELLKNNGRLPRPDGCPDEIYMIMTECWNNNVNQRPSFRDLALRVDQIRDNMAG
Chain of TEC (P42680 whole entry): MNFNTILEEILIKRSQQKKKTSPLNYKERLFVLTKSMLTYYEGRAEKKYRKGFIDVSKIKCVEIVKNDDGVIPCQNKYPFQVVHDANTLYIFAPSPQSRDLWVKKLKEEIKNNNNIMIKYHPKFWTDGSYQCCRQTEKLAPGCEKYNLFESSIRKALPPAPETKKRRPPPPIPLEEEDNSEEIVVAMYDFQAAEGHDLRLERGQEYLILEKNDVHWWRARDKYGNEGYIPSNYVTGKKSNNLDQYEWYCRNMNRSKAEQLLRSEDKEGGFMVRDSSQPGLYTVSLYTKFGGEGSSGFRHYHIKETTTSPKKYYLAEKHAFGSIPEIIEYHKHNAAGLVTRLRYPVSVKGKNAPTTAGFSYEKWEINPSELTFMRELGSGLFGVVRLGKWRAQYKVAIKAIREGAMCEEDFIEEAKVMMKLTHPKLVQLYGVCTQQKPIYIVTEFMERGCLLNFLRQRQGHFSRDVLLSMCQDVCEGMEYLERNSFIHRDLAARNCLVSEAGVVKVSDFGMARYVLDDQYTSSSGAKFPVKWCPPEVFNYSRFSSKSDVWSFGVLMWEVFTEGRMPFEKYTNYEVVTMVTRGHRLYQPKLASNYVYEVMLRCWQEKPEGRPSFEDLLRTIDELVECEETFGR

Row | Structure (SMILES) | Kinase inhibition (% control, 1000 nM compound) TEC [1] | IC50 [2] | Kinase inhibition (% control, 1000 nM compound) ITK [3] | IC50 [4] | IC50 [5] | Kinase inhibition (% control, 1000 nM compound) BLK [6] | Kinase inhibition (% control, 1000 nM compound) TXK [7] | IC50 [8] | IC50 [9] | further results
1 | C=CC(=O)Nc1cccc(N(C(=O)OCc2ccccc2)c2ccnc(Nc3cnn(C)c3)n2)c1 [Compound 83A] | 5.7 % control | 17.5 µM | 66 % control | 9 µM | 16.7 µM | 0.4 % control | 3.8 % control | 2.95 µM | 0.107 µM | 
2 | C=CC(=O)Nc1cccc(N(C(=O)NCc2ccccc2)c2cc(Nc3ccc(N4CCN(C)CC4)cc3)ncn2)c1 [Compound 29A] |  |  |  |  |  |  |  |  |  | EGFR activity (% Control, 100 nM drug) L858R [10]: 0 % Control; EGFR activity (% Control, 100 nM drug) Del [11]: 2 % Control; EGFR activity (% Control, 100 nM drug) Del/T790M [12]: 6 % Control; EGFR activity (% Control, 100 nM drug) L858R/T790M [13]: 13 % Control; IC50 [14]: 19.4 nM
3 | C=CC(=O)Nc1cccc(N(C(=O)OCc2ccccc2)c2ccnc(Nc3cnn(CCN4CCOCC4)c3)n2)c1 [Compound 85A] |  | 18.3 µM |  | 8.86 µM | 16.1 µM |  |  | 4.37 µM | 0.189 µM | 
4 | C=CC(=O)Nc1cccc(N(C(=O)Nc2ccccc2)c2cc(Nc3ccc(N4CCN(C)CC4)cc3)ncn2)c1 [Compound 25A] |  |  |  |  |  |  |  |  |  | EGFR activity (% Control, 100 nM drug) L858R [10]: 1 % Control; EGFR activity (% Control, 100 nM drug) Del [11]: 14 % Control; EGFR activity (% Control, 100 nM drug) Del/T790M [12]: 53 % Control; EGFR activity (% Control, 100 nM drug) L858R/T790M [13]: 24 % Control; IC50 [14]: 31.2 nM
5 | C=CC(=O)Nc1cccc(N(C(=O)OCc2ccccc2)c2ccnc(Nc3cnn(C4CCOCC4)c3)n2)c1 [Compound 84A] |  | 18.1 µM |  | 7.41 µM | 11.3 µM |  |  | 4.17 µM | 0.139 µM | 
6 | C=CC(=O)Nc1cccc(N(C(=O)NCc2ccccc2)c2cc(Nc3ccc(N4CCN(C)CC4)cc3OC)ncn2)c1 [Compound 3A, N-(3-(3-benzyl-1-(6-((2-methoxy-4-(4-methylpiperazin-1-yl)phenyl)amino)pyrimidin-4-yl)ureido)phenyl)acrylamide] | 55 % control |  | 100 % control |  |  | 19 % control | 7.4 % control |  |  | EGFR activity (% Control, 1.0 μM drug) Assay 1 Del/T790M/L718Q ([15]; Assay 1): 53 % Control; EGFR activity (% Control, 1.0 μM drug) Assay 2 Del/T790M/L718Q ([15]; Assay 2): 86 % Control; EGFR activity (% Control, 1.0 μM drug) Assay 1 KIF5B/Ret_V804M [16]: 102 % Control; EGFR activity (% Control, 1.0 μM drug) Assay 1 L858R ([10]; 1.0 μM drug, Assay 1): 2 % Control; EGFR activity (% Control, 1.0 μM drug) Assay 2 L858R ([10]; 1.0 μM drug, Assay 2): 4 % Control; EGFR activity (% Control, 1.0 μM drug) Assay 1 Del ([11]; 1.0 μM drug, Assay 1): 2 % Control; EGFR activity (% Control, 1.0 μM drug) Assay 2 Del ([11]; 1.0 μM drug, Assay 2): 1 % Control; EGFR activity (% Control, 1.0 μM drug) Assay 1 Del/T790M ([12]; 1.0 μM drug, Assay 1): 1 % Control; EGFR activity (% Control, 1.0 μM drug) Assay 2 Del/T790M ([12]; 1.0 μM drug, Assay 2): 2 % Control
7 | C=CC(=O)Nc1cccc(N(C(=O)OCc2ccccc2)c2ccnc(Nc3ccc(N4CCN(C)CC4)cc3OC)n2)c1 [Compound 4A, Benzyl (3-acrylamidophenyl)(2-((2-methoxy-4-(4-methylpiperazin-1-yl)phenyl)amino)pyrimidin-4-yl)carbamate] | 83 % control |  | 100 % control |  |  | 20 % control | 27 % control |  |  | IC50 [17]: 2.92 nM; Microsome Stability Mouse min [18]: 29 min; IC50 ([10]; Assay 1, L858R, read-out: EGFR Ba/F3 cells IC 50 (nM) Assay 1 L858R): 0.5 nM; IC50 ([11]; Assay 1, Del, read-out: EGFR Ba/F3 cells IC 50 (nM) Assay 1 Del): 14.2 nM; IC50 ([12]; Assay 1, Del/T790M, read-out: EGFR Ba/F3 cells IC 50 (nM) Assay 1 Del/T790M): 17.3 nM; IC50 [19]: 293 nM; IC50 ([13]; Assay 1, L858R/T790M, read-out: EGFR Ba/F3 cells IC 50 (nM) Assay 1 L858R/T790M): 7.6 nM
8 | C=CC(=O)Nc1cc(Nc2nccc(N(C)C(=O)Oc3ccccc3)n2)c(OC)cc1N(C)CCN(C)C [Compound 80A] | 90 % control |  | 94 % control |  |  | 14 % control | 12 % control |  |  | 
